In general, IC50 refers to the point on the concentration scale where inhibition reaches its midpoint.

For the experiment, the target named is human dopamine transporter (hDAT) (Homo sapiens, UniProt Q01959). The experiment in a line: live-cell confocal imaging of ASP+ accumulation in hDAT-transfected EM4 cells. In kind it is cell-based.
Chain of human dopamine transporter (hDAT) (Q01959 whole entry): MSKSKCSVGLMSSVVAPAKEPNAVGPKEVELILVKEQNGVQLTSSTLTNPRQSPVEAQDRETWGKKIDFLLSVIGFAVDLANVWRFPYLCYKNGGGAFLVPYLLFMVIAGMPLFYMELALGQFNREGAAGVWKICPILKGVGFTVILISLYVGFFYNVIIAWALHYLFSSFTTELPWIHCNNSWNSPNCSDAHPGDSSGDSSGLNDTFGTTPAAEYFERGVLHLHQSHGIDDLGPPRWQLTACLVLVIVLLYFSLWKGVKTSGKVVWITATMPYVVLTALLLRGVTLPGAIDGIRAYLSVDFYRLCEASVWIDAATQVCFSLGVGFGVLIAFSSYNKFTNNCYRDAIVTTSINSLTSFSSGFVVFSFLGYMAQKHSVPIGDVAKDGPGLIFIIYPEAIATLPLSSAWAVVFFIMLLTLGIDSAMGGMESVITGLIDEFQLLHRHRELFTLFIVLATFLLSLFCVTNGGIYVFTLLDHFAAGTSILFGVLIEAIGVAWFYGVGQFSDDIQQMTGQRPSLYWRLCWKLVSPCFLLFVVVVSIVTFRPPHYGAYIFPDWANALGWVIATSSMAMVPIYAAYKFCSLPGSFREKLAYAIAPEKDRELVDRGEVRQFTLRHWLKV

As for `CCCCC/C=C\C/C=C\C/C=C\C/C=C\CCCC(=O)NCCO` [AEA, anandamide], the 50% inhibitory concentration (IC50) is 3.2 ± 0.8 µM.

The values are drawn from paper PMC2951136 (Journal of neurochemistry, 2009).
